Source: US10857258B2, “Adhesive peptide and use therefor” (SEWON BIOTECHNOLOGY INC., priority 2015, dated 2020)
Entries after “also recorded” stand apart in the source; their conditions may differ. Residues, ends and D or L forms follow the SMILES beside them.

What was measured:
osteoblast MC3TC-E1 = experiment: Safety in osteoblasts; assay type: cell-based, Mouse; conditions: 0.1 μM, 1 μM, 10 μM and 100 μM
Method: The safety of the present peptides was determined using osteoblast MC3TC-E1. Osteoblasts were treated with A7-1 peptide as prepared in Example 1 at the concentration of 0.1 μM, 1 μM, 10 μM and 100 μM. Then the effect of the present peptide on the proliferation (FIG. 8A), viability (FIG. 8B) and differentiation (FIG. 8C) on the cells was examined. For testing the effect on the […], MC3T3-E1 and C2C12 cell lines were treated with BMP (rhBMP2, 10 ng/ml for 3 days) and differentiation medium for bone formation for 6 days to induce differentiation. The results were examined by cell staining. It is observed that the present peptide has no effect on the proliferation rate, viability rate or whether or not the cells are differentiated.

[1] = system: anchorage dependent cells MC3T3-E1; experiment: Comparative experiment with soluble RGDS, CCK-8; assay type: cell-based, Mouse; conditions: RGDS 0, 10, 100 and 1000 μM
Method: The present peptide A7-1(10 μM) or A7-1 together with soluble RGDS peptide (0, 10, 100 and 1000 μM) for competition assay were added to anchorage dependent cells MC3T3-E1 in a test tube and incubated for 10 min. Then the cells were transferred to a culture plate and incubated for 10 min in a thermostatic incubator to allow the cells to attach. After 10 min, the medium was removed and the cells were washed 2 times with PBS to remove any unattached cells and a fresh medium without the peptide and CCK-8 (Dojindo) were added to the cells and incubated for 1 hr in a thermostatic incubator. Then the absorbance was measured at 450 nm. The medium mixed with CCK-8 only was used as a blank.

Compound: CC(C)C[C@H](NC(=O)[C@H](CCC(N)=O)NC(=O)[C@@H](N)CCCNC(=N)N)C(=O)N[C@H](C(=O)N[C@H](C(=O)N[C@@H](CCCCN)C(=O)N[C@@H](Cc1ccccc1)C(=O)N[C@@H](CCCNC(=N)N)C(=O)N[C@@H](C)C(=O)N[C@@H](CC(C)C)C(=O)N1CCC[C@H]1C(=O)N[C@@H](CS)C(=O)O)C(C)C)C(C)C [A7-1, RQLVVKFRALPC] (H-RQLVVKFRALPC-OH)
- effect on differentiation (osteoblast MC3TC-E1): no effect
- effect on proliferation rate (osteoblast MC3TC-E1): no effect
- effect on viability rate (osteoblast MC3TC-E1): no effect

Compound: RGDS
- cell adhesiveness with RGDS in the absence of A7-1 [1]: decreased in a concentration dependent manner; also recorded: significantly reduces the adhesiveness
